Measurements from patent US12037306B2, “Methods of treating neurofibromatosis type 1 with N-((R))-2,3-dihydroxypropoxy)-3,4-difluoro-2-(2-fluoro-4-iodophenylamino)-benzamide” (Warner-Lambert Company LLC, priority 2021, dated 2024).

Assay: Form IV stability by XRPD comparison to a reference standard after storage
Assay type: physicochemical
Settings: stored at 25° C. and 65% relative humidity
Description: In some aspects, the XRPD pattern is generated using a PANALYTICAL® X'Pert Pro diffractometer using Ni-filtered Cu Kα (45 kV/40 mA) radiation and a step size of 0.03° 2θ with a X'CELERATOR® Real Time Multi-Strip detector, configured (a) on the incidental beam side as follows: variable divergence slits (10 mm irradiated length), 0.04 rad Soller slits, fixed anti-scatter slit (0.50°), and 10 mm beam mask, and (b) on the diffracted beam side as follows: variable anti-scatter slit (10 mm observed length) and 0.04 rad Soller slit or a BRUKER® D8® ADVANCE™ system using Cu Kα (40 kV/40 mA) radiation and a step size of 0.03° 2θ with a LYNXEYE™ detector, configured (a) on the incidental beam side as follows: Göebel mirror, mirror exit slit (0.2 mm), 2.5° Soller slit, beam knife, and (b) on the diffracted beam side as follows: anti-scatter slit (8 mm) and 2.5° Soller slit, wherein samples are mounted flat on zero-background Si wafers. In some aspects, the DSC pattern is generated using a TA Instruments Q100 or Q2000 differential scanning calorimeter at a rate of temperature increase of about 15° C./min.
Stability of Form IV material was determined by comparing the XRPD spectrum of a batch to a reference standard XRPD spectrum. This analysis was performed at batch release, and the XRPD spectrum obtained corresponded to that of the reference standard of Form IV (FIG. 2). […]

O=C(NOC[C@H](O)CO)c1ccc(F)c(F)c1Nc1ccc(I)cc1F [Form IV, N—((R)-2,3-dihydroxypropoxy)-3,4-difluoro-2-(2-fluoro-4-iodo-phenylamino)-benzamide]
Changes in the XRPD spectrum over time (stability of Form IV) (XRPD at 68 months (FIG. 3A)): Undetectable changes
Changes in the XRPD spectrum over time (stability of Form IV) (XRPD at 140 months (FIG. 3B)): Undetectable changes
